Read-outs that look alike come from different tables or passages of the source.

The target in data set [1] is T1, PI3Kβ (Homo sapiens, UniProt P42338). Description: PI3K binding assay (lipid kinase reaction, ADP-Glo), PI3K beta. It counts as biochemical. The following applies: Table 2A; first value of cell (ADP-Glo, Example 901). How it is done:
(§1) Reactions are carried out using the following conditions for each PI3K isoform as in Table 5.
(§2) All reactions are carried out at room temperature. […] The reaction is started by the addition of 2 μL ATP/MgCl2. The kinase reaction buffer contains 50 mM HEPES, 50 mM NaCl 3 mM MgCl2, 0.01% BSA, 1% DMSO, and enzyme and substrate concentrations as indicated in the above table. The reaction is stopped by the addition of 10 μL ADP-Glo reagent. Plates are read in a Perkin Elmer Envision system using luminescence mode. 10 point dose response curves are generated for each test compound. Ki values for each compound are determined using the Morrison Equation.
In general terms: ADP-Glo first removes unused ATP, then detects ADP through luciferase.

The target of the next data set is PI3Kα (Homo sapiens, UniProt P42336). Nature of the data set: PI3K binding assay (lipid kinase reaction, ADP-Glo), PI3K alpha. It counts as biochemical. To be noted: Table 2A; for Ki: first value of cell (ADP-Glo, Example 901), read-out: PI3Kα Ki; for Selectivity for PI3Kα vs. PI3K-β / Selectivity for PI3Kα vs. PI3Kγ / Selectivity for PI3Kα vs. PI3Kδ: selectivity ratio (fold). The procedure: as §1, §2

The target in the next data set is PI3Kδ (Homo sapiens, UniProt O00329). Description: PI3K binding assay (lipid kinase reaction, ADP-Glo), PI3K delta. The following applies: Table 2A; first value of cell (ADP-Glo, Example 901). The class given is biochemical. The procedure: as §1, §2
The test system of the next data set is P-PRAS40 SW48(H1047R). Nature of the data set: Inhibition of P-PRAS40 in SW48 isogenic cells, PI3Kα mutant H1047R. The class given is cell-based. The following applies: for EC50: Homo sapiens, SW48, 24 hours of compound treatment, read-out: P-PRAS40 SW48(H1047R) EC50; for Fold Selectivity for SW48(H1047R) vs. SW48(parental): EC50 potency ratio, p value (Student t-Test) given. How it is done:
(§3) All statistics were performed using KaleidaGraph Software (version 4.1.3). A Student t-Test was performed using unpaired data with equal variance to compare activity against mutant cells and wild-type cells. P<0.05 is considered to be significant.
(§4) The following assays are intended for determining the cellular potency and mutant selectivity of small molecule PI3Kα inhibitors. […] Mutant selectivity of PI3Kα inhibitors is determined by EC50 potency ratios in the WT vs. E545K cell lines and WT vs. H1047R cell lines.
(§5) The three cell lines (WT, E545K, and H1047R) are plated and assayed in parallel. The following day, test compounds are serially diluted in dimethyl sulfoxide (DMSO) and added to cells (final DMSO concentration 0.5%). […] Cell lysates are added to assay plates pre-coated with antibodies against phosphorylated PRAS40. Phosphorylated PRAS40 in samples are allowed to bind to the capture antibodies overnight at 4° C. The detection antibody (anti-total PRAS40, labeled with an electrochemiluminescent SULFO-TAG) is added to the bound lysate and incubated for 1 hour at room temperature. The MSD Read Buffer is added such that when a voltage is applied to the plate electrodes, the labels bound to the electrode surface emit light. The MSD Sector Instrument measures the intensity of the light, and quantitatively measures the amount of phosphor-PRAS40 in the sample. Percent inhibition of PRAS40 phosphorylation by varying concentrations of test compounds is calculated relative to untreated controls. EC50 values are calculated using the 4 parameter logistic nonlinear regression dose-response model.

Data set [2] concerns HCC1954 cells (PI3Kα mutant H1047R). Nature of the data set: In vitro cell viability assay (Cell Titer-Glo), HCC1954. For orientation: ATP-based viability assays read luminescence as a measure of living cells.
Procedure: (§6) Cells were seeded (1,500 per well) in 384-well plates for 16 h. On day 2, nine serial 1:3 compound dilutions were made in DMSO in a 96-well plate. The compounds were then further diluted into growth media using a Rapidplate robot (Zymark Corp.). The diluted compounds were then added to quadruplicate wells in the 384-well cell plates and incubated at 37° C. and 5% CO2. After 4 d, relative numbers of viable cells were measured by luminescence using Cell Titer-Glo (Promega) according to the manufacturer's instructions and read on a Wallac Multilabel Reader (Perkin-Elmer). EC50 values were calculated using Prism 6.0 software (GraphPad).
For another data set, the system named is P-PRAS40 SW48(E545K). Description: Inhibition of P-PRAS40 in SW48 isogenic cells, PI3Kα mutant E545K. It counts as cell-based. The following applies: for EC50: Homo sapiens, SW48, 24 hours of compound treatment, read-out: P-PRAS40 SW48(E545K) EC50; for Fold Selectivity for SW48(E545K) vs. SW48(parental): EC50 potency ratio, p value (Student t-Test) given. How it is done:
as §3, §4, §5

The test system of data set [3] is MCF7 cells (PI3Kα mutant E545K). Description: In vitro cell viability assay (Cell Titer-Glo), MCF7.
Procedure: as §6
Data set [4] deals with KPL4 breast cancer cell line (PI3Kα mutant H1047R) tumors. The following applies: KPL4 xenograft in SCID mice, daily PO (oral) dosing; for Tolerability / treatment-related body weight loss: all doses; for Inhibition of KPL4 tumor growth in vivo: FIGS. 2A and 2B. The procedure: (70-72° F.) and 40-60% humidity.
Tumor weight may be estimated with the assumption that 1 mg is equivalent to 1 mm^3 of tumor volume.

Data set [5] deals with KPL4 cells (PI3Kα mutant H1047R). Description: In vitro cell viability assay (Cell Titer-Glo), KPL4.
Procedure: as §6
The subject of another data set is P-PRAS40 SW48(parental). Description: Inhibition of P-PRAS40 in SW48 isogenic cells, PI3Kα wild-type (parental). The following applies: Homo sapiens, SW48, 24 h.
The target in data set [6] is T2, PI3Kγ (Homo sapiens, UniProt P48736). Nature of the data set: PI3K binding assay (lipid kinase reaction, ADP-Glo), PI3K gamma. It counts as biochemical. The following applies: Table 2A; first value of cell (ADP-Glo, Example 901). The procedure: as §1, §2
The test system of data set [7] is locally advanced or metastatic solid tumors. To be noted: phase Ia, single agent; all responses in patients with PIK3CA mutant tumors (Juric D. et al. AACR 2013); cited from earlier work.
In data set [8] the target is T1, PI3Kβ. Nature of the data set: Fluorescence polarization (FP) Ki, methods of Example 901 of U.S. Pat. No. 8,242,104, PI3K beta. To be noted: read-out: PI3Kβ FP Ki; Table 2A; second value of cell after slash (FP).
Data set [9] has as its target T2, PI3Kγ. Nature of the data set: Fluorescence polarization (FP) Ki, methods of Example 901 of U.S. Pat. No. 8,242,104, PI3K gamma. To be noted: read-out: PI3Kγ FP Ki; Table 2A; second value of cell after slash (FP). On the technique in general: In fluorescence polarisation assays a small probe gives low polarisation when free and higher when bound to something large.

Where [10] appears, read: Homo sapiens, HCC1954, 96 h, read-out: HCC1954 antiproliferative EC50 (μM).
Setting [11] is: Homo sapiens, MCF7, 96 h, read-out: MCF7 antiproliferative EC50 (μM).
Setting [12] is: KPL4, 96 h, read-out: KPL4 antiproliferative EC50 (μM).
The mark [13] stands for this setting: read-out: P-PRAS40 SW48(parental) EC50 (nM).

Sequence of PI3Kα (P42336 whole entry): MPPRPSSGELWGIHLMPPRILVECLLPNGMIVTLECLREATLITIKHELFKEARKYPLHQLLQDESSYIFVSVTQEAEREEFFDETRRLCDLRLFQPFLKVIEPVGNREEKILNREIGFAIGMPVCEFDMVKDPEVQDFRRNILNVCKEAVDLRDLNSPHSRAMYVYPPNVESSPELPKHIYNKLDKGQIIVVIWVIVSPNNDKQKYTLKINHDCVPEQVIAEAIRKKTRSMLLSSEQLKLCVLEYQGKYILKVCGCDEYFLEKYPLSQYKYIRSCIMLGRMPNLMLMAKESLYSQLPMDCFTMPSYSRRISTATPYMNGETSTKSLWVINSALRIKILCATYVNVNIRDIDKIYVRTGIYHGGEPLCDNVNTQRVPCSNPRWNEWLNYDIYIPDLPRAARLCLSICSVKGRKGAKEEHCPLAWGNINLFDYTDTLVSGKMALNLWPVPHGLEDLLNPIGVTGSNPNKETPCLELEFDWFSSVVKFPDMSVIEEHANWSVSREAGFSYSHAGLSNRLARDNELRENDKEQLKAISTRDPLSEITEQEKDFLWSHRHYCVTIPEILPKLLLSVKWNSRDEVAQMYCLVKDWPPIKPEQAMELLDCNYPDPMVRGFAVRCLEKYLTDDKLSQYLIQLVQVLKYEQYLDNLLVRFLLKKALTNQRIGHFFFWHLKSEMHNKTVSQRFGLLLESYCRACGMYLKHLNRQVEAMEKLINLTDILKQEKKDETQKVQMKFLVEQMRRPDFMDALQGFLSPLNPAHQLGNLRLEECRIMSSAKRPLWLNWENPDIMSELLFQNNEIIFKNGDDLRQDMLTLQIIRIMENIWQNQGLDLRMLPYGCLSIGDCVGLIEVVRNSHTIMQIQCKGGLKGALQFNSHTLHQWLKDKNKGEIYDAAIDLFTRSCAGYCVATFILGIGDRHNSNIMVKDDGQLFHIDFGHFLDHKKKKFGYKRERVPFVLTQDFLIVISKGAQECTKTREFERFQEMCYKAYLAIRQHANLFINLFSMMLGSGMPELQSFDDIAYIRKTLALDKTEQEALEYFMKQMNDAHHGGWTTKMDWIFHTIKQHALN
Sequence of PI3Kα (P27986 whole entry partner): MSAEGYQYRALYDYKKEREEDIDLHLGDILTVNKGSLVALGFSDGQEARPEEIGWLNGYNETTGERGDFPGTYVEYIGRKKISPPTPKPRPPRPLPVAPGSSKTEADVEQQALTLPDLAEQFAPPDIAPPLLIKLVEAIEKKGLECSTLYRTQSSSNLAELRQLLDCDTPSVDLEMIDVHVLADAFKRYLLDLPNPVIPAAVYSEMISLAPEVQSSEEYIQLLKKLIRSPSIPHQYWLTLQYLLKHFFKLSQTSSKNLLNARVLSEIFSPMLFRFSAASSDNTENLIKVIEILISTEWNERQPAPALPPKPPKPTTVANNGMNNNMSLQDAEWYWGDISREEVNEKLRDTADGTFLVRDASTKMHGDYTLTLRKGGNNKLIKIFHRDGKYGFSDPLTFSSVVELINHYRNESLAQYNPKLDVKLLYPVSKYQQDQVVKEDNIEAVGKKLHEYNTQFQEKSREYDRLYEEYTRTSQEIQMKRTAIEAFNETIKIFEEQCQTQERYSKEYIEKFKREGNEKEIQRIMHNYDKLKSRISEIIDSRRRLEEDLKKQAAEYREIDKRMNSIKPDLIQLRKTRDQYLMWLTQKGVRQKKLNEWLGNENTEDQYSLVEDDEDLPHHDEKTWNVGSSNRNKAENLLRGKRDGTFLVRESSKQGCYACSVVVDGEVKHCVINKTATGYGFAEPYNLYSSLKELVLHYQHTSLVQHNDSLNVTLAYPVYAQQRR
T2 sequence (P48736 whole entry): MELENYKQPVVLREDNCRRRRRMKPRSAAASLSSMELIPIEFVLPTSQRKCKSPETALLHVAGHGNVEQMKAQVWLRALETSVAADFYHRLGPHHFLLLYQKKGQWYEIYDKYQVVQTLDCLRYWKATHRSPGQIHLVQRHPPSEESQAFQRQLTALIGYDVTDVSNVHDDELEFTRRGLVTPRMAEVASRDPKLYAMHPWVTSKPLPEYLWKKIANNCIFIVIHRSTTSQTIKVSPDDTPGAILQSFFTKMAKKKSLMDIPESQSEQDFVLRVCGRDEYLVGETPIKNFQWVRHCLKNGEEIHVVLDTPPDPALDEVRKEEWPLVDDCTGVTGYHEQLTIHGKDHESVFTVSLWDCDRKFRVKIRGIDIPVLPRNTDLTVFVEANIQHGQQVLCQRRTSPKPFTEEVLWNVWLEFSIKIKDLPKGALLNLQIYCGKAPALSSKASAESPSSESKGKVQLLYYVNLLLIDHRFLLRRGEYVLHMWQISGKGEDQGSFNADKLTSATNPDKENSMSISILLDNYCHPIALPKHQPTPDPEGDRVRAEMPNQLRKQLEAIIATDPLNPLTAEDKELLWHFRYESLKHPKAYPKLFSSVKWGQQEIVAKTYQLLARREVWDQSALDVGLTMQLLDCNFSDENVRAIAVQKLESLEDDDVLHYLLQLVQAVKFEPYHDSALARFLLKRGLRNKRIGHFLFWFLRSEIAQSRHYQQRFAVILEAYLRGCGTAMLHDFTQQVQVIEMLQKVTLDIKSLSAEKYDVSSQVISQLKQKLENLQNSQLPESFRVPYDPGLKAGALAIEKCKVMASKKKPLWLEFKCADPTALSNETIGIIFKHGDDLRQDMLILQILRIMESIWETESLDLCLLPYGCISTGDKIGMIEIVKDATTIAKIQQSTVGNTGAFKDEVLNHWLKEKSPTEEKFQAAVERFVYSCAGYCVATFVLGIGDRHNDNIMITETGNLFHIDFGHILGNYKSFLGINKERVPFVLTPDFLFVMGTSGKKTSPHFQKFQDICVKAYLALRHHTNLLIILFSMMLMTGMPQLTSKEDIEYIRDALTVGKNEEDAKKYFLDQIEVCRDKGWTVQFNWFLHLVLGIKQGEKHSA
T1 sequence (P42338 whole entry, canonical isoform): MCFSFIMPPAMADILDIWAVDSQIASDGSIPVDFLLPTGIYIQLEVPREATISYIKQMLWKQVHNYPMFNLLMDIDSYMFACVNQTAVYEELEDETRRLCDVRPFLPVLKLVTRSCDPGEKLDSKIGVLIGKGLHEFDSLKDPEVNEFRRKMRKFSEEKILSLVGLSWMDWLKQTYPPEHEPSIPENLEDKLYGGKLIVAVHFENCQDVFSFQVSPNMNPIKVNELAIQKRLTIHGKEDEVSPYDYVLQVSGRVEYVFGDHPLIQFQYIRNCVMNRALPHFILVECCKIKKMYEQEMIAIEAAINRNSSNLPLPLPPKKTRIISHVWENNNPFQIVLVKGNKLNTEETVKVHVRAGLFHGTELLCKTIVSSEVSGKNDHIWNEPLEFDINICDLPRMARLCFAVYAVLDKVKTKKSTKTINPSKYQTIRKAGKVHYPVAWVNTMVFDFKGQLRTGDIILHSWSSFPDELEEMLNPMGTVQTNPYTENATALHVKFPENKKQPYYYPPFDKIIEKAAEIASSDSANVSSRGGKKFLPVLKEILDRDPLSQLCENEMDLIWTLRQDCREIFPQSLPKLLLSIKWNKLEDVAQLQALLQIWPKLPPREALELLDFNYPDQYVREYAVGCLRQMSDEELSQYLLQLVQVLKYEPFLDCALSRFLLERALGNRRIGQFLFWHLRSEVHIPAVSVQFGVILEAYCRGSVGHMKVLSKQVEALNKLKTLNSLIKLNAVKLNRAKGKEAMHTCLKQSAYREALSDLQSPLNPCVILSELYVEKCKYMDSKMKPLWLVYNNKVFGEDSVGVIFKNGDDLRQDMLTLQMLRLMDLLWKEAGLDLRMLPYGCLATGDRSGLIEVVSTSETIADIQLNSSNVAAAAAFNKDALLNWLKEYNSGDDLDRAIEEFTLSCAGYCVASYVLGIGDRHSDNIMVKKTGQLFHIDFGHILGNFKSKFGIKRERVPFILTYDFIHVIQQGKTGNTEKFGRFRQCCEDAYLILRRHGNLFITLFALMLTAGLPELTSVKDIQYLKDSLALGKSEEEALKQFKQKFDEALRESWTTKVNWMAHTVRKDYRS
T1 sequence (P27986 whole entry partner, canonical isoform): as the sequence (P27986 whole entry partner) above
Sequence of PI3Kδ (O00329 whole entry): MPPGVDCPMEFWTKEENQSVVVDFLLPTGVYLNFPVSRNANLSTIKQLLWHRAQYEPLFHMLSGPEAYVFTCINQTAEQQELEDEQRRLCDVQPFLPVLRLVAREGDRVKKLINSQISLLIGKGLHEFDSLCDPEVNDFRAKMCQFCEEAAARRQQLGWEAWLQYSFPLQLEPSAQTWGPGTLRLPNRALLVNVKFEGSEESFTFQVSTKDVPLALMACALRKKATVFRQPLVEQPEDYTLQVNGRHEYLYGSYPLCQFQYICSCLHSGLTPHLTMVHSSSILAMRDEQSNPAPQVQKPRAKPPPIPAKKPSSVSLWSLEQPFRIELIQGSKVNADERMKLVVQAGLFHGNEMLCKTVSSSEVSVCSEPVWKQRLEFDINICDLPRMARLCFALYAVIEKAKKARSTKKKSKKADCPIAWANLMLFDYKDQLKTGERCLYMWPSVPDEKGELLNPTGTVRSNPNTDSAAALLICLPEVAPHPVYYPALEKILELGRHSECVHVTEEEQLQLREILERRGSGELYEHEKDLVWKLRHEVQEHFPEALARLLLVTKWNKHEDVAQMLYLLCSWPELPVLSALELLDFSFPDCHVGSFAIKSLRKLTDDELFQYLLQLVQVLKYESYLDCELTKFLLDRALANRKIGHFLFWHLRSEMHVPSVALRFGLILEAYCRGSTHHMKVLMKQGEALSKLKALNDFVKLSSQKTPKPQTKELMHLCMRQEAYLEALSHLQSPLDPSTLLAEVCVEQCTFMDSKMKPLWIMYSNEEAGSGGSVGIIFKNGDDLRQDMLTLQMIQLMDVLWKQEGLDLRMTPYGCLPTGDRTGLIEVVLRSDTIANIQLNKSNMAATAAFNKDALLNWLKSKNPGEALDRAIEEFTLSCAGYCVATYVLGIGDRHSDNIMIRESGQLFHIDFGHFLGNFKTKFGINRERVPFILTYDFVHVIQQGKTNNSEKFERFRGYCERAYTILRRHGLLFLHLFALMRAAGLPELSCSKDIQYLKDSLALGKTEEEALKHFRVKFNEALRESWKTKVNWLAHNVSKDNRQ
Sequence of PI3Kδ (P27986 whole entry partner): as the sequence (P27986 whole entry partner) above
Procedure for P-PRAS40 SW48(parental): The three cell lines (WT, E545K, and H1047R) are plated and assayed in parallel. The following day, test compounds are serially diluted in dimethyl sulfoxide (DMSO) and added to cells (final DMSO concentration 0.5%). Cells are then incubated for 24 hours at 37° C. and 5% CO2. […] Cell lysates are added to assay plates pre-coated with antibodies against phosphorylated PRAS40. Phosphorylated PRAS40 in samples are allowed to bind to the capture antibodies overnight at 4° C. The detection antibody (anti-total PRAS40, labeled with an electrochemiluminescent SULFO-TAG) is added to the bound lysate and incubated for 1 hour at room temperature. The MSD Read Buffer is added such that when a voltage is applied to the plate electrodes, the labels bound to the electrode surface emit light. The MSD Sector Instrument measures the intensity of the light, and quantitatively measures the amount of phosphor-PRAS40 in the sample. Percent inhibition of PRAS40 phosphorylation by varying concentrations of test compounds is calculated relative to untreated controls. EC50 values are calculated using the 4 parameter logistic nonlinear regression dose-response model.

In the case of `NC(=O)[C@@H]1CCCN1c1ccc2c(c1)OCCn1cc(N3C(=O)OC[C@H]3C(F)(F)F)nc1-2` [Compound 103, (S)-1-(2-((S)-2-Oxo-4-(trifluoromethyl)oxazolidin-3-yl)-5,6-dihydrobenzo[f]imidazo[1,2-d][1,4]oxazepin-9-yl)pyrrolidine-2-carboxamide], the Ki at PI3Kβ [1] is 108 nM; on PI3Kα it was 0.155 nM; on PI3Kδ, 2.28 nM; on PI3Kγ [6], 45 nM. In addition, the “Selectivity for PI3Kα vs. PI3K-β” value on PI3Kα came out at 698. The “Selectivity for PI3Kα vs. PI3Kγ” value at PI3Kα came out at 290. On PI3Kα, the “Selectivity for PI3Kα vs. PI3Kδ” value is given as 15. The concentration for a half-maximal effect (EC50) turned out to be 7.1 nM with P-PRAS40 SW48(H1047R) (Table 3A, geometric mean); 0.15 µM in data set [2] (setting [10]); 6.9 nM in the data set with P-PRAS40 SW48(E545K) (Table 3A, geometric mean); 0.38 µM in data set [3] (setting [11]); 0.02 µM in [5] (setting [12]); 18.7 nM with P-PRAS40 SW48(parental) (setting [13]). Moreover, in the data set with P-PRAS40 SW48(H1047R) (Table 3A), the “Fold Selectivity for SW48(H1047R) vs. SW48(parental)” value is recorded as 2.6 (p = 0.002). Moreover, the “Fold Selectivity for SW48(E545K) vs. SW48(parental)” value with P-PRAS40 SW48(E545K) (Table 3A) was 2.7 (p = 0.002). Besides, the “Tolerability / treatment-related body weight loss” value in [4] is given as “well tolerated, with no treatment-related body weight loss observed”. In addition, the “Inhibition of KPL4 tumor growth in vivo” value in data set [4] is recorded as “strongly inhibit the growth of KPL4 tumors in vivo in a dose-dependent manner”.
For the compound `Cc1nc(-c2cn3c(n2)-c2ccc(-c4cnn(C(C)(C)C(N)=O)c4)cc2OCC3)n(C(C)C)n1` [taselisib, 2-(4-(2-(1-isopropyl-3-methyl-1H-1,2,4-triazol-5-yl)-5,6-dihydrobenzo[f]imidazo[1,2-d][1,4]oxazepin-9-yl)-1H-pyrazol-1-yl)-2-methylpropanamide, reference compound], the “Partial responses (PRs) in enrolled patients” value in data set [7] is reported as 6/34. In addition, the Ki at PI3Kβ [1] is 53 nM; at PI3Kβ [8], 9.1 nM; at PI3Kγ [9], 0.97 nM. The EC50 with P-PRAS40 SW48(H1047R) (Table 3B comparator compounds) stood at 4 nM; in [2] (read-out: HCC1954 antiproliferative EC50, 4 d incubation, Cell Titer-Glo), 0.04 µM; with P-PRAS40 SW48(E545K) (Table 3B comparator compounds), 3.4 nM; in data set [3] (read-out: MCF7 antiproliferative EC50, 4 d incubation, Cell Titer-Glo), 0.02 µM; in data set [5] (read-out: KPL4 antiproliferative EC50, 4 d incubation, Cell Titer-Glo), 0.02 µM; with P-PRAS40 SW48(parental) (read-out: P-PRAS40 SW48(parental) EC50 (μM)) it was 7.9 nM.
For `C[C@@H]1COC(=O)N1c1cn2c(n1)-c1ccc(N3CCC[C@H]3C(N)=O)cc1OCC2` [Compound 102, (S)-1-(2-((R)-4-Methyl-2-oxooxazolidin-3-yl)-5,6-dihydrobenzo[f]imidazo[1,2-d][1,4]oxazepin-9-yl)pyrrolidine-2-carboxamide], the Ki was 418 nM on PI3Kβ [1], 0.56 nM at PI3Kα, 13.3 nM at PI3Kδ and 205 nM on PI3Kγ [6]. For the same compound, the “Selectivity for PI3Kα vs. PI3K-β” value on PI3Kα came to 745. For the same compound, the “Selectivity for PI3Kα vs. PI3Kγ” value on PI3Kα is 366. Moreover, the “Selectivity for PI3Kα vs. PI3Kδ” value on PI3Kα stood at 24. In addition, the EC50 came out at 16.4 nM in the data set on P-PRAS40 SW48(H1047R) (Table 3A, geometric mean); 0.48 µM in data set [2] (setting [10]); 16.6 nM in the data set on P-PRAS40 SW48(E545K) (Table 3A, geometric mean); 0.1 µM in data set [3] (setting [11]); 0.05 µM in data set [5] (setting [12]); 39.2 nM in the data set with P-PRAS40 SW48(parental) (setting [13]). Further, in the data set on P-PRAS40 SW48(H1047R) (Table 3A), the “Fold Selectivity for SW48(H1047R) vs. SW48(parental)” value is 2.4 (p < 0.001). Also, the “Fold Selectivity for SW48(E545K) vs. SW48(parental)” value with P-PRAS40 SW48(E545K) (Table 3A) is 2.4 (p < 0.001). In [4], the “Tolerability / treatment-related body weight loss” value is given as “well tolerated, with no treatment-related body weight loss observed”. For the same compound, in data set [4], the “Inhibition of KPL4 tumor growth in vivo” value is “strongly inhibit the growth of KPL4 tumors in vivo in a dose-dependent manner”.

By Ki is commonly meant the dissociation constant of the complex between target and ligand, obtained from inhibition or displacement. What is called EC50 is the concentration that produces a half-maximal response.
